Measurements as given in the NIST ThermoML archive (doi:10.1016/j.fluid.2017.01.019).

Test: xn = mol fraction of the nth substance listed
Conditions: 100 kPa, Liquid; for mass density: Vibrating tube method; for viscosity: Falling or rolling sphere viscometry; for speed of sound: Frequency=3 MHz, Sing-around technique in a fixed-path interferometer

CCOS(=O)(=O)[O-].CCn1cc[n+](C)c1 [1-ethyl-3-methylimidazolium ethyl sulfate] + CCCCO
Conditions	mass density [kg/m3]	speed of sound [m/s]	viscosity [mPa·s]
289.15 K, x1 = 0.1071	894.433	–	–
289.15 K, x1 = 0.1982	955.118	–	–
289.15 K, x1 = 0.3069	1015.6	–	–
289.15 K, x1 = 0.3985	1058.77	–	–
289.15 K, x1 = 0.5048	1101.82	–	–
289.15 K, x1 = 0.603	1136.02	–	–
289.15 K, x1 = 0.7158	1169.99	–	–
289.15 K, x1 = 0.7951	1191.1	–	–
289.15 K, x1 = 0.9185	1219.88	–	–
289.15 K, x1 = 1	1236.33	–	–
298.15 K, x1 = 0.1071	–	1289.1	4.24
298.15 K, x1 = 0.1982	–	1334.4	7.8
298.15 K, x1 = 0.3069	–	1385.6	10.83
298.15 K, x1 = 0.3985	–	1430.2	14.09
298.15 K, x1 = 0.5048	–	1480.4	19.44
298.15 K, x1 = 0.603	–	1523.6	26.62
298.15 K, x1 = 0.7158	–	1571.7	38.4
298.15 K, x1 = 0.7951	–	1603.7	49.51
298.15 K, x1 = 0.9185	–	1649.7	72.34
298.15 K, x1 = 1	–	1682.3	96.21
303.15 K, x1 = 0.1071	890.751	1273.7	3.75
303.15 K, x1 = 0.1982	951.498	1319.9	6.51
303.15 K, x1 = 0.3069	1012.01	1372	9.15
303.15 K, x1 = 0.3985	1055.33	1417	11.98
303.15 K, x1 = 0.5048	1098.4	1467.3	16.51
303.15 K, x1 = 0.603	1132.65	1510.8	22.37
303.15 K, x1 = 0.7158	1166.67	1559.1	31.74
303.15 K, x1 = 0.7951	1187.78	1591.2	40.39
303.15 K, x1 = 0.9185	1216.56	1637.3	57.89
303.15 K, x1 = 1	1232.93	1670	75.89
308.15 K, x1 = 0.1071	887.005	1258.4	3.34
308.15 K, x1 = 0.1982	947.88	1305.4	5.54
308.15 K, x1 = 0.3069	1008.14	1358.2	7.92
308.15 K, x1 = 0.3985	1051.76	1403.8	10.46
308.15 K, x1 = 0.5048	1094.94	1454.7	14.4
308.15 K, x1 = 0.603	1129.23	1498.4	19.31
308.15 K, x1 = 0.7158	1163.39	1546.8	26.88
308.15 K, x1 = 0.7951	1184.46	1578.9	33.7
308.15 K, x1 = 0.9185	1213.19	1625.2	47.2
308.15 K, x1 = 1	1229.57	1657.9	60.73
313.15 K, x1 = 0.1071	883.165	1243.2	2.99
313.15 K, x1 = 0.1982	944.157	1290.7	4.82
313.15 K, x1 = 0.3069	1004.86	1344.1	6.95
313.15 K, x1 = 0.3985	1048.25	1390.4	9.21
313.15 K, x1 = 0.5048	1091.49	1441.8	12.62
313.15 K, x1 = 0.603	1125.39	1485.8	16.74
313.15 K, x1 = 0.7158	1160.05	1534.5	22.92
313.15 K, x1 = 0.7951	1181.13	1566.7	28.36
313.15 K, x1 = 0.9185	1209.91	1613.1	38.93
313.15 K, x1 = 1	1226.21	1645.9	49.38
318.15 K, x1 = 0.1071	879.331	1228	2.69
318.15 K, x1 = 0.1982	940.543	1276.5	4.25
318.15 K, x1 = 0.3069	1001.31	1330.5	6.16
318.15 K, x1 = 0.3985	1044.72	1377.6	8.16
318.15 K, x1 = 0.5048	1088.01	1429.8	11.12
318.15 K, x1 = 0.603	1122.45	1473.7	14.62
318.15 K, x1 = 0.7158	1156.71	1522.6	19.75
318.15 K, x1 = 0.7951	1177.81	1554.8	24.19
318.15 K, x1 = 0.9185	1206.65	1601.2	32.66
318.15 K, x1 = 1	1222.87	1634.1	40.93
323.15 K, x1 = 0.1071	875.482	1213	2.43
323.15 K, x1 = 0.1982	936.794	1262.2	3.69
323.15 K, x1 = 0.3069	997.633	1317	5.43
323.15 K, x1 = 0.3985	1041.07	1364.8	7.28
323.15 K, x1 = 0.5048	1084.47	1417.4	9.93
323.15 K, x1 = 0.603	1118.96	1461.5	12.97
323.15 K, x1 = 0.7158	1153.24	1510.6	17.27
323.15 K, x1 = 0.7951	1174.37	1543	20.87
323.15 K, x1 = 0.9185	1203.18	1589.4	27.56
323.15 K, x1 = 1	1219.54	1622.3	33.82

CCOS(=O)(=O)[O-].CCn1cc[n+](C)c1 [1-ethyl-3-methylimidazolium ethyl sulfate] + CO
Conditions	mass density [kg/m3]	speed of sound [m/s]	viscosity [mPa·s]
293.15 K, x1 = 0.1067	–	1292.5	–
293.15 K, x1 = 0.1996	–	1399.1	–
293.15 K, x1 = 0.2919	–	1473.1	–
293.15 K, x1 = 0.4021	–	1533.8	–
293.15 K, x1 = 0.4918	–	1569.6	–
293.15 K, x1 = 0.609	–	1606.4	–
293.15 K, x1 = 0.7095	–	1632.8	–
293.15 K, x1 = 0.8014	–	1652.9	–
293.15 K, x1 = 0.904	–	1667.9	–
293.15 K, x1 = 1	–	1682.3	–
298.15 K, x1 = 0.1067	961.555	–	1.45
298.15 K, x1 = 0.1996	1042.5	–	3.84
298.15 K, x1 = 0.2919	1095.83	–	4.57
298.15 K, x1 = 0.4021	1138.91	–	7.83
298.15 K, x1 = 0.4918	1164.2	–	12.99
298.15 K, x1 = 0.609	1188.99	–	19.97
298.15 K, x1 = 0.7095	1204.69	–	31.61
298.15 K, x1 = 0.8014	1216.59	–	45.92
298.15 K, x1 = 0.904	1227.45	–	65.82
298.15 K, x1 = 1	1236.33	–	96.21
303.15 K, x1 = 0.1067	957.326	1278.1	1.35
303.15 K, x1 = 0.1996	1038.4	1386.3	3.29
303.15 K, x1 = 0.2919	1092.01	1459.8	4.15
303.15 K, x1 = 0.4021	1135.31	1522.6	7.09
303.15 K, x1 = 0.4918	1160.82	1556.9	11.38
303.15 K, x1 = 0.609	1185.52	1592.1	17.26
303.15 K, x1 = 0.7095	1201.31	1620.4	26.48
303.15 K, x1 = 0.8014	1213.11	1639.1	37.65
303.15 K, x1 = 0.904	1224.02	1655.7	53.03
303.15 K, x1 = 1	1232.93	1670	75.89
308.15 K, x1 = 0.1067	952.925	1263.8	1.26
308.15 K, x1 = 0.1996	1034.33	1372.7	2.8
308.15 K, x1 = 0.2919	1088.21	1446.5	3.78
308.15 K, x1 = 0.4021	1131.6	1509.8	6.42
308.15 K, x1 = 0.4918	1157.42	1544.4	10.02
308.15 K, x1 = 0.609	1182.08	1579.7	15.14
308.15 K, x1 = 0.7095	1198	1608.1	22.48
308.15 K, x1 = 0.8014	1209.7	1627	31.44
308.15 K, x1 = 0.904	1220.61	1643.6	43.71
308.15 K, x1 = 1	1229.57	1657.9	60.73
313.15 K, x1 = 0.1067	948.697	1249.6	1.17
313.15 K, x1 = 0.1996	1030.41	1359.3	2.47
313.15 K, x1 = 0.2919	1084.41	1433.5	3.48
313.15 K, x1 = 0.4021	1127.88	1497.1	5.85
313.15 K, x1 = 0.4918	1153.83	1531.8	8.91
313.15 K, x1 = 0.609	1178.56	1567.3	13.32
313.15 K, x1 = 0.7095	1194.76	1596	19.31
313.15 K, x1 = 0.8014	1206.29	1615	26.51
313.15 K, x1 = 0.904	1217.22	1631.6	36.28
313.15 K, x1 = 1	1226.21	1645.9	49.38
318.15 K, x1 = 0.1067	944.458	1235.4	1.09
318.15 K, x1 = 0.1996	1026.64	1345.8	2.23
318.15 K, x1 = 0.2919	1080.74	1420.5	3.21
318.15 K, x1 = 0.4021	1124.28	1484.5	5.34
318.15 K, x1 = 0.4918	1150.3	1519.3	7.96
318.15 K, x1 = 0.609	1175.06	1555	11.78
318.15 K, x1 = 0.7095	1191.48	1584	16.79
318.15 K, x1 = 0.8014	1202.9	1603.1	22.62
318.15 K, x1 = 0.904	1213.85	1619.7	30.46
318.15 K, x1 = 1	1222.87	1634.1	40.93
323.15 K, x1 = 0.1067	940.54	1221.4	1.02
323.15 K, x1 = 0.1996	1022.72	1332.3	1.95
323.15 K, x1 = 0.2919	1077.09	1407.6	2.96
323.15 K, x1 = 0.4021	1120.78	1471.9	4.85
323.15 K, x1 = 0.4918	1146.92	1506.8	7.08
323.15 K, x1 = 0.609	1171.65	1542.8	10.54
323.15 K, x1 = 0.7095	1188.29	1572.1	14.68
323.15 K, x1 = 0.8014	1199.51	1591.3	19.5
323.15 K, x1 = 0.904	1210.5	1607.9	25.98
323.15 K, x1 = 1	1219.54	1622.3	33.82
